The source made the active and inactive calls. The calls are words filed in the database; no cut-off is given here.
Experiments:
Format in all cases: functional, cell-based
A549 [1] = test: Effect on AXL protein expression in gallium-sensitive human A549 cells at 50 uM fter 48 hrs by immunofluorescence assay
A549 [2] = test: Antiproliferative activity against gallium-sensitive human A549 cells after 48 hrs by MTT assay; conditions: A549, 48 h
A549 [3] = test: Potentiation of gallium acetylacetonate-induced antiproliferative activity against gallium-sensitive human A549 cells at 0.25 uM after 48 hrs by MTT assay
A549 [4] = test: Reduction in AXL protein expression in gallium-resistant human A549 cells at 50 uM fter 48 hrs by immunofluorescence assay
A549 [5] = test: Potentiation of gallium acetylacetonate-induced antiproliferative activity against gallium-resistant human A549 cells at 0.25 uM after 48 hrs by MTT assay
A549 [6] = test: Potentiation of gallium acetylacetonate-induced antiproliferative activity against gallium-resistant human A549 cells assessed as allium acetylacetonate IC50 at 0.25 uM after 48 hrs by MTT assay; conditions: A549, 48 h
A549 [7] = test: Antiproliferative activity against gallium-resistant human A549 cells after 48 hrs by MTT assay; conditions: A549, 48 h

| IC50 (A549 [2]) | IC50 (A549 [6]) | IC50 (A549 [7]) | Structure (SMILES) | Activity (A549 [1]) | Activity (A549 [3]) | Activity (A549 [4]) | Activity (A549 [5]) |
| --- | --- | --- | --- | --- | --- | --- | --- |
| 3.6 µM | 102 µM | 2.8 µM | Oc1c(CN2CCN(Cc3ccc4cccnc4c3O)CC2)ccc2cccnc12 | inactive | inactive | Active | Active |
| 8.6 µM | 199 µM | 17.4 µM | O=C(CSc1nnnn1-c1cccc2ccccc12)c1ccc(O)c(O)c1 | inactive | inactive | Active | Active |
